{"source": "paper PMC4649711", "about": "“In1-ghrelin splicing variant is overexpressed in pituitary adenomas and increases their aggressive features” (Scientific Reports, 2015)", "key": {"GH-omas": {"system": "GH-omas", "assay": "cell viability of GH-omas after In1-ghrelin silencing", "format": "cell-based, human", "details": "siRNA 100 nM vs scramble, 24 and 48 h, alamar-blue, n = 2", "source_text": "(§1) To perform overexpression experiments, ghrelin sequence was purchased, cloned in pCMV-Sport6-vector (Harvard Cancer Center, Boston, MA, USA) and was subcloned into the expression vector pCDNA3.1+ (Life Technologies, Grand Island, NY, USA). In1-ghrelin sequence was PCR-amplified (In1-Hind-Up: 5′-[…]-3′ and In1-Bam-Low: 5′-[…]-3′) and cloned into pCDNA3.1+. Empty pCDNA3.1+ (mock) was used in all the experiments as negative control. For silencing experiments, a battery of custom-designed siRNAs specifically targeted against the unique In1-ghrelin mRNA sequence was chemically synthesized by Life Technologies and their efficiency, specificity and appropriate concentration tested in human cell lines expressing In1-ghrelin (MDA-MB-231 breast cancer cell line and LnCAP prostate cancer cell line) (data not shown). […]\n(§2) As previously reported, cell viability was estimated using alamar-blue reagent (10,000 cells/well-plate; Biosource International, Camarillo, CA, USA)[30][50][52]. […] Reduction of alamar-blue reagent was quantified exciting at 560 nm and reading at 590 nm using the FlexStation III system (Molecular Devices, Sunnyvale, CA, USA). […]"}, "NFPAs": {"system": "NFPAs", "assay": "cell viability of NFPAs after In1-ghrelin silencing", "format": "cell-based, human", "details": "siRNA 100 nM vs scramble, 24 and 48 h, alamar-blue, n = 2", "source_text": "as §1, §2"}, "In1-ghrelin mRNA": {"system": "In1-ghrelin mRNA", "assay": "silencing of In1-ghrelin mRNA expression", "format": "cell-based, human", "details": "qPCR; for silencing of In1-ghrelin expression: human cell lines MDA-MB-231 and LnCAP (data not shown) or representative pituitary tumor validation (Figure 6G)", "source_text": "To perform overexpression experiments, ghrelin sequence was purchased, cloned in pCMV-Sport6-vector (Harvard Cancer Center, Boston, MA, USA) and was subcloned into the expression vector pCDNA3.1+ (Life Technologies, Grand Island, NY, USA). In1-ghrelin sequence was PCR-amplified (In1-Hind-Up: 5′-[…]-3′ and In1-Bam-Low: 5′-[…]-3′) and cloned into pCDNA3.1+. Empty pCDNA3.1+ (mock) was used in all the experiments as negative control. For silencing experiments, a battery of custom-designed siRNAs specifically targeted against the unique In1-ghrelin mRNA sequence was chemically synthesized by Life Technologies and their efficiency, specificity and appropriate concentration tested in human cell lines expressing In1-ghrelin (MDA-MB-231 breast cancer cell line and LnCAP prostate cancer cell line) (data not shown). […] As a negative control, a commercial, validated negative control (scramble) was used in all the experiments, which according to the manufacturer's instructions, has no significant sequence similarity to murine or human gene sequences (Silencer Select Negative Control No. 1 siRNA, Life Technologies, […], NY, USA).\nFor transfection assays (overexpression or silencing), 200,000–500,000 cells were seeded on 6-well plates in serum containing medium during 24–36 h. Then, medium was replaced with antibiotic-antimycotic free medium. For overexpression experiments, 100 ng/50,000 cell of ghrelin or In1-ghrelin plasmid was diluted in 50 μL of Opti-MEM and, 0.5 μL of Lipofectamine 2000 (Life Technologies) were separately diluted in another 50 μL of Opti-MEM. Both solutions were incubated for 5 minutes at room temperature and then, were mixed and incubated for 30 minutes at room temperature. After this incubation period, the solution (total of 100 μL) was added to the cells/per well. For silencing experiments, 7.5 μL of Lipofectamine RNAiMAX (Life Technologies) was diluted in 100 μL of Opti-MEM and, 100 nM of In1-ghrelin siRNA was separately diluted in another 100 μL of Opti-MEM. […]"}, "recombinant human GHSR1b": {"target": "T1, recombinant human GHSR1b (Homo sapiens, UniProt Q92847)", "T1 construct": "expressed in transfected cells; host or cells: CHO-K1 (ATCC CCL-61), stably transfected", "T1 sequence (Q92847 1-289 isoform Q92847-2)": "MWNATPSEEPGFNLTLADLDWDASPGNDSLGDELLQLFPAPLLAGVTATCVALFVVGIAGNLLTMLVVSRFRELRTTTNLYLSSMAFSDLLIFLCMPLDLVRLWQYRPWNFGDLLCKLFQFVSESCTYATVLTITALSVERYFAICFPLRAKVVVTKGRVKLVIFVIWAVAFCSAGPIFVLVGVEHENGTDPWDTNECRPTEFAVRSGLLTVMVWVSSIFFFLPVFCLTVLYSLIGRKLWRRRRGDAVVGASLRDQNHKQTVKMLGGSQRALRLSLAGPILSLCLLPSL", "assay": "calcium signaling activation in GHSR1b-transfected CHO-K1 cells", "format": "cell-based", "details": "Calcium 4 kit, FLIPR Tetra, 37°C dye loading 1 h, dose-response, GraphPad Prism, read-out: Half-maximal Calcium signaling activation (EC50)", "protocol": "Changes in [Ca^2+]i in CHO-K1 cell line expressing recombinant GHSR1a or GHSR1b receptor were measured using Calcium 4 Explorer Kit (Molecular Devices, Sunnyvale, CA, USA). Briefly, cells were incubated at 37°C, 5% CO2 overnight in growth media. After 24 hours, growth media was replaced with Calcium 4 indicating dye in HBSS buffer containing 20 mM HEPES and 0.1% BSA and incubated for 1 hour at 37°C. Fluorescent signals were then monitored using the FLIPR Tetra (Molecular Devices, Sunnyvale, CA, USA) during which cells were stimulated with compounds. Dose-response curves were analyzed using GraphPad Prism v5.04 (La Jolla, CA, USA)."}, "AtT-20 cell line [1]": {"system": "AtT-20 cell line", "assay": "ACTH secretion from AtT-20 cell line", "format": "cell-based, mouse", "details": "4 h, 3–5 independent experiments", "experimental": "(§3) The mouse corticotroph pituitary derived cell line AtT-20/D16v-F2 (ATCC® CRL-1795) was cultured and maintained in Dulbecco's Modified Eagle's Medium (DMEM) complemented with 10% FBS, 100 U/ml penicillin/streptomycin, 0.024 M of 2-(4(2-hydroxyethyl)-1-piperazine)-ethane sulfonic acid (HEPES), and maintained at 37°C and 5% CO2, under sterile conditions. CHO-K1 cell line(ATCC® CCL-61) expressing recombinant human GHSR1a (GenBank accession number U60179) or GHSR1b (GenBank accession number U60181) were cultured and maintained in Ham's F12 media (Corning #10-080-CV) supplemented with 10% FBS, 2 mM L-Glutamine and 0.4 mg/mL Geneticin.\nTo examine the effects of ghrelin system components (4- and/or 24 h-incubation) on pituitary hormone release from primary pituitary adenoma and/or AtT-20 cell line, 100,000–200,000 cell/well were used. As previously reported, hormone concentrations were measured in the culture media derived from human samples according to the pituitary adenoma type using commercial ELISAs [growth hormone, GH; adrenocorticotropin, ACTH; and prolactin, PRL (reference numbers: EIA-3552, EIA-3647 and EIA-1291, respectively; DRG, Mountainside, NJ, USA)] following the manufacturer's instructions. All the information regarding specificity, detectability, and reproducibility for each of the assays can be accessed at the web site of the company."}, "AtT-20 cell line [2]": {"system": "AtT-20 cell line", "assay": "cell viability of AtT-20 cell line", "format": "cell-based, mouse", "details": "alamar-blue, 3–5 independent experiments, IGF-1 and Paclitaxel as controls", "experimental": "as §3\nAs previously reported, cell viability was estimated using alamar-blue reagent (10,000 cells/well-plate; Biosource International, Camarillo, CA, USA)[30][50][52]. Briefly, cells were serum-starved for 12–16 h before the measurements and treated with serum-free medium containing 10% alamar-blue for 3 h. Reduction of alamar-blue reagent was quantified exciting at 560 nm and reading at 590 nm using the FlexStation III system (Molecular Devices, Sunnyvale, CA, USA). Subsequently, media was replaced by serum-containing alamar-blue free medium and incubated for additional 24–72 h, measuring the alamar-blue reduction every 24 h. […]"}}, "note": "Entries after “also recorded” stand apart in the source; their conditions may differ. Residues, ends and D or L forms follow the SMILES beside them. *: point of attachment. Octanoyl = CCCCCCCC(=O)*"}
{"molecule": "5′-GAGTCCTAAACAGACTGTT-3′ (siRNA; other strand not given here) [In1-ghrelin siRNA]", "values": [{"measurement": "cell viability after In1-ghrelin silencing", "setting": "GH-omas", "result": "reduced cell viability"}, {"measurement": "cell viability after In1-ghrelin silencing", "setting": "NFPAs", "result": "reduced cell viability"}, {"measurement": "silencing of In1-ghrelin expression", "setting": "In1-ghrelin mRNA", "result": "more robust silencing efficiency of In1-ghrelin, but not native ghrelin"}, {"measurement": "silencing of In1-ghrelin expression", "setting": "In1-ghrelin mRNA; listed as specific siRNAs", "result": "decrease of In1-ghrelin mRNA expression"}, {"measurement": "ghrelin mRNA expression after In1-ghrelin silencing", "setting": "In1-ghrelin mRNA; selectivity vs native ghrelin", "result": "no significant decrease of ghrelin mRNA expression"}]}
{"molecule": "CCCCCCCC(=O)OC[C@H](NC(=O)[C@H](CO)NC(=O)CN)C(=O)N[C@@H](Cc1ccccc1)C(=O)N[C@@H](CC(C)C)C(=O)N[C@@H](CO)C(=O)N1CCC[C@H]1C(=O)N[C@@H](CCC(=O)O)C(=O)N[C@@H](Cc1c[nH]cn1)C(=O)N[C@@H](CCC(N)=O)C(=O)N[C@@H](CCCNC(=N)N)C(=O)N[C@H](C(=O)N[C@@H](CCC(N)=O)C(=O)N[C@H](C(=O)N[C@@H](CCCNC(=N)N)C(=O)N1CCC[C@H]1C(=O)N1CCC[C@H]1C(=O)N[C@@H](Cc1c[nH]cn1)C(=O)N[C@@H](CCCCN)C(=O)O)C(C)C)C(C)C", "note": "[In1-19] (H-GSS(Octanoyl)FLSPEHQRVQVRPPHK-OH)", "values": [{"measurement": "EC50", "setting": "recombinant human GHSR1b", "result": "> 3", "unit": "µM"}]}
{"molecule": "CCCCCCCC(=O)OC[C@H](NC(=O)[C@H](CO)NC(=O)CN)C(=O)N[C@@H](Cc1ccccc1)C(=O)N[C@@H](CC(C)C)C(=O)N[C@@H](CO)C(=O)N1CCC[C@H]1C(=O)N[C@@H](CCC(=O)O)C(=O)N[C@@H](Cc1c[nH]cn1)C(=O)N[C@@H](CCC(N)=O)C(=O)N[C@@H](CCCNC(=N)N)C(=O)N[C@H](C(=O)N[C@@H](CCC(N)=O)C(=O)N[C@H](C(=O)N[C@@H](CCCNC(=N)N)C(=O)N1CCC[C@H]1C(=O)N1CCC[C@H]1C(=O)N[C@@H](Cc1c[nH]cn1)C(=O)N[C@@H](CCCCN)C(=O)N[C@@H](C)C(=O)N1CCC[C@H]1C(=O)N[C@@H](Cc1c[nH]cn1)C(=O)N[C@H](C(=O)N[C@H](C(=O)N1CCC[C@H]1C(=O)N[C@@H](C)C(=O)N[C@@H](CC(C)C)C(=O)N1CCC[C@H]1C(=O)N[C@@H](CC(C)C)C(=O)N[C@@H](CO)C(=O)N[C@@H](CC(N)=O)C(=O)N[C@@H](CCC(N)=O)C(=O)N[C@@H](CC(C)C)C(=O)N[C@@H](CS)C(=O)N[C@@H](CC(=O)O)C(=O)N[C@@H](CC(C)C)C(=O)N[C@@H](CCC(=O)O)C(=O)N[C@@H](CCC(N)=O)C(=O)N[C@@H](CCC(N)=O)C(=O)N[C@@H](CCCNC(=N)N)C(=O)O)C(C)C)C(C)C)C(C)C)C(C)C", "note": "[In1-40] (H-GSS(Octanoyl)FLSPEHQRVQVRPPHKAPHVVPALPLSNQLCDLEQQR-OH)", "values": [{"measurement": "EC50", "setting": "recombinant human GHSR1b", "result": "> 3", "unit": "µM"}]}
{"molecule": "GSSFLSPEHQKAQVSQSVSLSPHIYPDLCVCV [In2-ghrelin, 32-aa mouse In2-ghrelin derived peptide, murine counterpart of In1-ghrelin]", "values": [{"measurement": "basal ACTH release", "setting": "AtT-20 cell line [1]", "result": "significantly increased basal ACTH release"}, {"measurement": "cell viability", "setting": "AtT-20 cell line [2]", "result": "stimulated cell viability; also recorded: increased cell viability"}]}
